Assay results published in patent publication US9452980B2, “Substituted benzamides” (Hoffmann-La Roche Inc., priority 2009, dated 2016).
Counter-ions that a name gives are not always drawn.

What follows are compounds tested against mouse TAAR1 (Mus musculus (Mouse), UniProt Q923Y8) (assay: Radioligand binding assay on mouse TAAR1). Details: mouse TAAR1, HEK-293 membranes, first value of cell mouse/rat; read-out: Ki (μM) mouse.
Protocol: (§1) For the construction of expression plasmids the coding sequences of human, rat and mouse TAAR1 were amplified from genomic DNA essentially as described by Lindemann et al.. The Expand High Fidelity PCR System (Roche Diagnostics) was used with 1.5 mM Mg^2+ and purified PCR products were cloned into pCR2.1-TOPO cloning vector (Invitrogen) following the instructions of the manufacturer. PCR products were subcloned into the pIRESneo2 vector (BD Clontech, Palo Alto, Calif.), and expression vectors were sequence verified before introduction in cell lines.
(§2) HEK293 cells (ATCC #CRL-1573) were cultured essentially as described by Lindemann et al. (2005). For the generation of stably transfected cell lines HEK293 cells were transfected with the pIRESneo2 expression plasmids containing the TAAR coding sequences (described above) with Lipofectamine 2000 (Invitrogen) according to the instructions of the manufacturer, and 24 hrs post transfection the culture medium was supplemented with 1 mg/ml G418 (Sigma, Buchs, Switzerland). After a culture period of about 10 d clones were isolated, expanded and tested for responsiveness to trace amines (all compounds purchased from Sigma) with the cAMP Biotrak Enzyme immunoassay (EIA) System (Amersham) following the non-acetylation EIA procedure provided by the manufacturer.
Radioligand Binding Assay on Mouse TAAR1
(§3) Membrane Preparation and Radioligand Binding.
(§4) HEK-293 cells stably expressing mouse TAAR1 were maintained at 37° C. and 5% CO2 in DMEM high glucose medium, containing fetal calf serum (10%, heat inactivated for 30 min at 56° C.), penicillin/streptomycin (1%), and 375 μg/ml geneticin (Gibco). Cells were released from culture flasks using trypsin/EDTA, harvested, washed twice with ice-cold PBS (without Ca^2+ and Mg^2+), pelleted at 1,000 rpm for 5 min at 4° C., frozen and stored at −80° C. Frozen pellets were suspended in 20 ml HEPES-NaOH (20 mM, pH 7.4) containing 10 mM EDTA and homogenized with a Polytron (PT 6000, Kinematica) at 14,000 rpm for 20 s. The homogenate was centrifuged at 48,000×g for 30 min at 4° C. Subsequently, the supernatant was removed and discarded, and the pellet resuspended in 20 ml HEPES-NaOH (20 mM, pH 7.4) containing 0.1 mM EDTA using the Polytron (20 s at 14,000 rpm). This procedure was repeated and the final pellet resuspended in HEPES-NaOH containing 0.1 mM EDTA and homogenized using the Polytron. Typically, aliquots of 2 ml membrane portions were stored at −80° C. With each new membrane batch the dissociation constant (Kd) was determined via a saturation curve. […] Nonspecific binding was defined as the amount of ^3[H]—(S)-4-[(ethyl-phenyl-amino)-methyl]-4,5-dihydro-oxazol-2-ylamine bound in the presence of 10 μM unlabeled ligand. All compounds were tested at a broad range of concentrations (10 pM to 10 μM) in duplicates. […] The 96 deep well plates were incubated for 1 hr at 4° C. Incubations were terminated by rapid filtration through Unifilter-96 plates (Packard Instrument Company) and glass filters GF/C (Perkin Elmer) presoaked for 1 hr in polyethylenimine (0.3%) and washed 3 times with 1 ml of cold binding buffer. After addition of 45 μl of Microscint 40 (PerkinElmer) the Unifilter-96 plate was sealed and after 1 hr the ratioactivity counted using a TopCount Microplate Scintillation Counter (Packard Instrument Company).

Chain of mouse TAAR1 (Q923Y8 whole entry): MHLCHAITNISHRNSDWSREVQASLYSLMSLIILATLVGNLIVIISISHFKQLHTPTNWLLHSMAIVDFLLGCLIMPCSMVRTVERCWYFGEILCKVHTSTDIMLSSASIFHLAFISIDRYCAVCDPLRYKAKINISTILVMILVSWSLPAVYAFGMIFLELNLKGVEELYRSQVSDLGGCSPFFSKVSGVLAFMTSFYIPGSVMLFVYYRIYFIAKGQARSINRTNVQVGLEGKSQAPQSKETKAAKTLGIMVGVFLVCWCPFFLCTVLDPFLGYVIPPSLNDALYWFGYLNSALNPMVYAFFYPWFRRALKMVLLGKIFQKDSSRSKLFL

Row | Structure (SMILES) | Ki [µM]
1 | C[C@@H](C(=O)Nc1ccc(C2CCNC2)cc1)c1ccccc1 (mixture of isomers) [Example 29, (R)-2-Phenyl-N—((RS)-4-pyrrolidin-3-yl-phenyl)-propionamide] | 0.102
2 | C[C@H](C(=O)Nc1ccc(C2CCNC2)cc1)c1ccccc1 (mixture of isomers) [Example 30, (S)-2-Phenyl-N—((RS)-4-pyrrolidin-3-yl-phenyl)-propionamide] | 0.053
3 | CC(C(=O)Nc1ccc(C2CCNC2)cc1)c1ccccc1 (racemic) [Example 25, (RS)-2-Phenyl-N—((RS)-4-pyrrolidin-3-yl-phenyl)-propionamide] | 0.32
4 | O=C(Nc1ccc(C2CCNC2)cc1)N1CCCCC1 (racemic) [Example 28, (RS)-Piperidine-1-carboxylic acid (4-pyrrolidin-3-yl-phenyl)-amide] | 0.434
5 | CCN1CCC(c2ccc(NC(=O)c3ccc(Cl)cc3)cc2)C1 (racemic) [Example 33, (RS)-4-Chloro-N-[4-(1-ethyl-pyrrolidin-3-yl)-phenyl]-benzamide] | 0.0006
6 | COc1cccc(C(C)C(=O)Nc2ccc(C3CCNC3)cc2)c1 (racemic) [Example 67, (RS)-2-(3-Methoxy-phenyl)-N—((RS)-4-pyrrolidin-3-yl-phenyl)-propionamide] | 0.499
7 | CN1CCOC(c2ccc(NC(=O)c3ccc(Cl)cc3)cc2)C1 (racemic) [Example 80, (RS)-4-Chloro-N-[4-(4-methyl-morpholin-2-yl)-phenyl]-benzamide] | 0.0035
8 | O=C(Nc1ccc(COC2CCNC2)cc1)c1ccc(Cl)cc1 (racemic) [Example 145, (RS)-4-Chloro-N-[4-(pyrrolidin-3-yloxymethyl)-phenyl]-benzamide hydrochloride] | 0.0227
9 | O=C(Nc1ccc(C2CNCCO2)cc1)c1ccc(Cl)c(Cl)c1 (racemic) [Example 147, (RS)-3,4-Dichloro-N-(4-morpholin-2-yl-phenyl)-benzamide hydrochloride] | 0.001
10 | O=C(Nc1ccc(C2CNCCO2)cc1)c1ccc(Cl)cn1 (racemic) [Example 148, (RS)-5-Chloro-pyridine-2-carboxylic acid (4-morpholin-2-yl-phenyl)-amide hydrochloride] | 0.0393
11 | O=C(Nc1ccc(C2CCNC2)cn1)c1ccc(Cl)cc1 (racemic) [Example 181, (RS)-4-Chloro-N-(5-(pyrrolidin-3-yl)pyridin-2-yl)benzamide hydrochloride] | 0.0663
12 | COc1ccc(C(=O)Nc2ccc(C3CCNC3)cc2)cc1 (racemic) [Example 183, (RS)-4-Methoxy-N-(4-(pyrrolidin-3-yl)phenyl)benzamide hydrochloride] | 0.0526
13 | O=C(Nc1ccc(C2CCCNC2)cc1)c1ccccc1 (racemic) [Example 184, (RS)—N-(4-(piperidin-3-yl)phenyl)benzamide hydrochloride] | 0.153

Each compound was assayed against rat TAAR1 (Rattus norvegicus (Rat), UniProt Q923Y9) (assay: Radioligand binding assay on rat TAAR1). Details: rat TAAR1, HEK-293 membranes, second value of cell mouse/rat; read-out: Ki (μM) rat.
Protocol: as §1, §2
Radioligand Binding Assay on Rat TAAR1
as §3
as §4, with “rat” for “mouse”

Chain of rat TAAR1 (Q923Y9 whole entry): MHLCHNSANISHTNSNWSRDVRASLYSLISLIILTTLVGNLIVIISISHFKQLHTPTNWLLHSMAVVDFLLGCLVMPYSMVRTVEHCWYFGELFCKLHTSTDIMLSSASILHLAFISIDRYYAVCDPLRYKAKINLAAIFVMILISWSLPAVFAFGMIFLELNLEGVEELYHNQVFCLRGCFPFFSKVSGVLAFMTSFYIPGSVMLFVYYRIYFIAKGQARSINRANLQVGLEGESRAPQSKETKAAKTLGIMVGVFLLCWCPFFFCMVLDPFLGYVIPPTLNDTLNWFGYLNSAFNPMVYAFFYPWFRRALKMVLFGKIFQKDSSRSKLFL

Row | Structure (SMILES) | Ki [µM]
14 | O=C(NCc1ccccc1)Nc1ccc(C2CCNC2)cc1 (racemic) [Example 9, (RS)-1-Benzyl-3-(4-pyrrolidin-3-yl-phenyl)-urea hydrochloride] | 1.11
15 | O=C(Nc1ccc(C2CCNC2)cc1)NC1CCCCC1 (racemic) [Example 10, (RS)-1-Cyclohexyl-3-(4-pyrrolidin-3-yl-phenyl)-urea hydrochloride] | 0.309
16 | O=C(Cc1ccccc1)Nc1ccc(C2CCNC2)cc1 (racemic) [Example 12, (RS)-2-Phenyl-N-(4-pyrrolidin-3-yl-phenyl)-acetamide hydrochloride] | 0.29
17 | CN(C(=O)Nc1ccc(C2CCNC2)cc1)c1ccccc1 (racemic) [Example 14, (RS)-1-Methyl-1-phenyl-3-(4-pyrrolidin-3-yl-phenyl)-urea] | 0.645
18 | O=C(Nc1ccc(C2CCNC2)cc1)N1CCOCC1 (racemic) [Example 21, (RS)-Morpholine-4-carboxylic acid (4-pyrrolidin-3-yl-phenyl)-amide hydrochloride] | 0.359
19 | O=C(Nc1ccc(C2CCN(c3ccccc3)C2)cc1)c1ccc(Cl)cc1 (racemic) [Example 36, (RS)-4-Chloro-N-[4-(1-phenyl-pyrrolidin-3-yl)-phenyl]-benzamide] | 0.324
20 | CC1(c2ccc(NC(=O)c3ccccc3)cc2)CCNC1 (racemic) [Example 41, (RS)—N-[4-(3-Methyl-pyrrolidin-3-yl)-phenyl]-benzamide] | 2.98
21 | COCc1ccc(C(=O)Nc2ccc(C3CCNC3)cc2)cc1 (racemic) [Example 51, (RS)-4-Methoxymethyl-N-(4-pyrrolidin-3-yl-phenyl)-benzamide hydrochloride] | 0.0985
22 | O=C(Nc1ccc(C2CNCCO2)cc1)c1ccc(Cl)cc1 (racemic) [Example 71, (RS)-4-Chloro-N-(4-morpholin-2-yl-phenyl)-benzamide hydrochloride] | 0.0121
23 | O=C(Nc1ccc(C2CCNC2)cc1)OCCc1ccc(OC(F)(F)F)cc1 (racemic) [Example 125, (RS)-(4-Pyrrolidin-3-yl-phenyl)-carbamic acid 2-(4-trifluoromethoxy-phenyl)-ethyl ester] | 0.0007
24 | O=C(Nc1ccc(C2CCCNC2)cn1)c1ccc(Cl)cc1 (racemic) [Example 187, (RS)-4-Chloro-N-(5-(piperidin-3-yl)pyridin-2-yl)benzamide hydrochloride] | 0.0123
25 | O=C(Nc1ccc(C2CNCCO2)cc1)C1CCN(c2ccncn2)CC1 (racemic) [Example 287, (RS)—N-(4-(Morpholin-2-yl)phenyl)-1-(pyrimidin-4-yl)piperidine-4-carboxamide dihydrochloride] | 0.379
26 | Cc1cnc(C(=O)Nc2ccc([C@@H]3CCCNC3)cc2)cn1 [Example 247, (S)-5-Methyl-N-(4-(piperidin-3-yl)phenyl)pyrazine-2-carboxamide hydrochloride] | 0.0677
27 | O=C(NCc1ccc([C@H]2CNCCO2)cc1)c1ccc(Cl)cc1 [Example 317, (S)-4-Chloro-N-(4-(morpholin-2-yl)benzyl)benzamide hydrochloride] | 0.0226
28 | O=C(NCc1ccc([C@H]2CNCCO2)cc1)c1ccc(Cl)nc1 [Example 319, (S)-6-Chloro-N-(4-(morpholin-2-yl)benzyl)nicotinamide hydrochloride] | 0.0206

Same assay, conditions: read-out: Ki (μM) rat

Row | Structure (SMILES) | Ki [µM]
29 | O=C(NCc1ccc([C@H]2CNCCO2)cc1)c1ccc(C(F)(F)F)nc1 [Example 320, (S)—N-(4-(Morpholin-2-yl)benzyl)-6-(trifluoromethyl)nicotinamide hydrochloride] | 0.0249
